Test results reported in ChEMBL document CHEMBL4837229 (Eur J Med Chem, 2021).
pIC50: −log10 of the molar value.

Biological target: Neuraminidase (Influenza A virus (strain A/USSR/90/1977 H1N1), UniProt P03469, H274Y)
Test: Inhibition of Influenza A virus (A/California/04/2009 (H1N1)) Neuraminidase H274Y mutant using MUNANA as substrate preincubated for 5 to 15 mins followed by substrate addition and measured after 30 mins by fluorescence spectrophotometric method

Row | SMILES | pIC50
1 | CCC(CC)O[C@@H]1C=C(C(=O)O)C[C@H](NC(N)=O)[C@H]1NC(C)=O | 6.18
2 | CCC(CC)O[C@@H]1C=C(C(=O)O)C[C@H](NC(=O)NNC)[C@H]1NC(C)=O | 6.93
3 | CCCCNNC(=O)N[C@H]1CC(C(=O)O)=C[C@@H](OC(CC)CC)[C@@H]1NC(C)=O | 6.83
4 | CCC(CC)O[C@@H]1C=C(C(=O)O)C[C@H](NC(=O)NN)[C@H]1NC(C)=O | 6.88
5 | CCCNNC(=O)N[C@H]1CC(C(=O)O)=C[C@@H](OC(CC)CC)[C@@H]1NC(C)=O | 6.42
